Tests used:
keratin 6A protein [1] = experiment: Keratin 6A protein expression in skin tissue of an adult mouse, Western blotting and immunofluorescence staining; type: in vivo
Description: (§1) In order to confirm whether ferulic acid induces the expression of keratin 6A protein from the skin tissue of a mouse, the cross-sections of the cultured skin tissue and the skin tissue of an adult mouse were treated with ferulic acid to confirm the expression level of keratin 6A protein using Western blotting and immunofluorescence staining.
For tissue fluorescence staining, after removing paraffin from the paraffin-coated skin tissue, the tissue was washed three times with a washing buffer (0.1 M, PBS), and reacted with a solution containing hydrogen peroxide (0.1 M PBS, 0.2% H2O2) for 30 minutes to eliminate the activity of endogenous peroxidase. […] Then, after washing three times with a washing buffer (0.1 M, PBS), fluorescence photos were taken using a FluoView FV1000 confocal microscope (Olympus, Tokyo, Japan). […]
(§2) First, in order to confirm the expression levels of two proteins, keratin 6A and beta-catenin, skin tissue was collected and protein was extracted using a dissolution buffer (pH 7.4, 50 mM, Tris-HCL, 150 mM NaCL, 1 mM EDTA, 1 mM EGTA, 10 mg/mL aprotinin, 10 mg/mL leupeptin, 5 mM phenylmethylsulfonyl fluoride and 1 mM DTT). The extracted protein was quantified using a Bradford reaction solution (Bio-Rad, CA, USA), and 20 μL of the protein was electrophoresed by 10% SDS-PAGE, and transferred to a nitrocellulose membrane (Merck, MA, USA). […]

c-myc protein [2] = experiment: c-myc protein expression in skin epidermal stem cells; type: cell-based, mouse; conditions: skin epidermal stem cells (FIGS. 7 and 8)
Description: (§3) In order to confirm whether ferulic acid regulates beta-catenin protein, an experiment was carried out to confirm the expression levels of beta-catenin protein and c-myc protein in epidermal cells and dermal cells of the skin.
(§4) The expression levels of beta-catenin protein and c-myc protein after treating skin epidermal stem cells with ferulic acid, and the expression levels of beta-catenin protein and c-myc protein after treating skin epidermal stem cells with ferulic acid together with LiCl, which is a beta-catenin protein inducer, were confirmed using immunofluorescence staining and Western blotting.
(§5) First, for immunofluorescence staining, the cell fluorescence staining method of Example 1 was referred to. At this time, beta-catenin (anti-beta-catenin extracted from mouse, 1:200, Invitrogen, CA, USA) was used instead of keratin 6A as a primary antibody, and Alexa 647 (anti-mouse IgG derived from goat, 1:1000, Invitrogen, CA, USA) was used instead of Alexa 488 (anti-rabbit IgG extracted from donkey, 1:1000, Invitrogen, CA, USA) as a secondary antibody.
(§6) In addition, for Western blotting, the Western blotting method of Example 1 was referred to. In this case, beta-catenin (anti-beta catenin extracted from mouse, 1:200, Invitrogen, CA, USA) was used instead of keratin 6A as a primary antibody.

keratin 6A protein [3] = experiment: Keratin 6A protein expression in cultured skin tissue of mouse, immunofluorescence staining; type: cell-based; conditions: cultured 12 days, compared to control group not treated (FIG. 1)
Description: as §1
First, after peeling off the skin of a mouse within one day of age, a circular skin piece was spread on a 24-well plate using a 4 mm punch (Kai industries). The cell medium was carefully added with the growth factor Cnt-57 according to the method of CELLnTEC, and the medium was replaced once every two days. […]
Specifically, for cell fluorescence staining, 500 μl of a 4% paraformaldehyde solution (solvent, PBS) was reacted for 20 minutes, and then washed three times with a washing buffer (0.1 M, PBS). […]
For tissue fluorescence staining, after removing paraffin from the paraffin-coated skin tissue, the tissue was washed three times with a washing buffer (0.1 M, PBS), and reacted with a solution containing hydrogen peroxide (0.1 M PBS, 0.2% H2O2) for 30 minutes to eliminate the activity of endogenous peroxidase. […] Then, after washing three times with a washing buffer (0.1 M, PBS), fluorescence photos were taken using a FluoView FV1000 confocal microscope (Olympus, Tokyo, Japan).

beta-catenin protein [4] = experiment: Beta-catenin protein expression in skin dermal stem cells, immunofluorescence staining and Western blotting; type: cell-based, mouse; conditions: skin dermal stem cells (FIGS. 9 and 10)
Description: as §3
as §4, with “dermal” for “epidermal”
as §5, §6

keratin 6A protein [5] = experiment: Keratin 6A protein expression in keratin 5 knock-down kera308 cells, Western blotting; type: cell-based, mouse; conditions: 100 μM, 24 hours, compared to not treated (FIG. 6)
Description: as §2, with “USA). The membrane was reacted with primary antibodies keratin 6A (rabbit anti-keratin 6A, 1:200, Covans, NJ, USA) and β-actin (anti-β-actin extracted from mouse, 1:1000, Santa Cruz, TX, USA), and washed three times with TBS-T (Tris Buffered Saline with Tween 20) for 10 minutes, and then the membrane was reacted with a secondary antibody (Santa Cruz, TX, USA) for 1 hour.” for “USA).”
The cells were precultured for 15 hours after attaching 1×10^6 cells/well of kera308 cells, and cultured for 24 hours after being treated with 100 μM ferulic acid. The harvested cells were centrifuged at 13,000 rpm for 5 minutes to take the supernatant, and then the protein concentration was quantified using Bradford assay (BioRed). […]

c-myc protein [6] = experiment: c-myc protein expression in skin dermal stem cells; type: cell-based, mouse; conditions: skin dermal stem cells (FIGS. 9 and 10)
Description: as §3
as §4, with “dermal” for “epidermal”
as §5, §6

beta-catenin protein [7] = experiment: Beta-catenin protein expression in skin epidermal stem cells, immunofluorescence staining and Western blotting; type: cell-based, mouse; conditions: skin epidermal stem cells (FIGS. 7 and 8)
Description: as §3, §4, §5, §6

COc1cc(/C=C/C(=O)O)ccc1O [ferulic acid]
expression level of keratin 6A protein (keratin 6A protein [1]; skin tissue of an adult mouse treated for 3 days and 7 days (FIGS. 2 and 3)): increased significantly | expression level of keratin 6A protein (keratin 6A protein [1]; skin tissue of an adult mouse, 3 days after treating (FIGS. 2 and 3)): particularly high | expression of c-myc protein (c-myc protein [2]): suppressed | expression level of keratin 6A protein (keratin 6A protein [3]): increased | amount of beta-catenin protein (beta-catenin protein [4]): increased | expression level of keratin 6A protein (keratin 6A protein [5]): increased significantly | amount of c-myc protein (c-myc protein [6]): increased | expression of beta-catenin protein (beta-catenin protein [7]): suppressed
